Source: ChEMBL document CHEMBL1201862, “PubChem BioAssay data set” (2004)
Active and inactive are the calls of the source.

Tests used:
[1] = cytotoxicity in HEK-293T cells, dose response, cytotoxicity control for TCR NF-kB inhibitor project, luminescence, T-cell screen hits (AID 489026); assay type: functional, cell-based;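 also: cells exposed to compound about 14 hours before the viability readout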
[2] = target: Glyceraldehyde-3-phosphate dehydrogenase (Homo sapiens, UniProt P04406)
[3] = target: T1, Replicative DNA helicase DnaB (Mycobacterium tuberculosis, UniProt P9WMR3); assay: DnaB intein splicing inhibitors, dose response, biochemical, cell-free fluorescence (AID 449749); assay type: functional
T1 sequence (P9WMR3 whole entry): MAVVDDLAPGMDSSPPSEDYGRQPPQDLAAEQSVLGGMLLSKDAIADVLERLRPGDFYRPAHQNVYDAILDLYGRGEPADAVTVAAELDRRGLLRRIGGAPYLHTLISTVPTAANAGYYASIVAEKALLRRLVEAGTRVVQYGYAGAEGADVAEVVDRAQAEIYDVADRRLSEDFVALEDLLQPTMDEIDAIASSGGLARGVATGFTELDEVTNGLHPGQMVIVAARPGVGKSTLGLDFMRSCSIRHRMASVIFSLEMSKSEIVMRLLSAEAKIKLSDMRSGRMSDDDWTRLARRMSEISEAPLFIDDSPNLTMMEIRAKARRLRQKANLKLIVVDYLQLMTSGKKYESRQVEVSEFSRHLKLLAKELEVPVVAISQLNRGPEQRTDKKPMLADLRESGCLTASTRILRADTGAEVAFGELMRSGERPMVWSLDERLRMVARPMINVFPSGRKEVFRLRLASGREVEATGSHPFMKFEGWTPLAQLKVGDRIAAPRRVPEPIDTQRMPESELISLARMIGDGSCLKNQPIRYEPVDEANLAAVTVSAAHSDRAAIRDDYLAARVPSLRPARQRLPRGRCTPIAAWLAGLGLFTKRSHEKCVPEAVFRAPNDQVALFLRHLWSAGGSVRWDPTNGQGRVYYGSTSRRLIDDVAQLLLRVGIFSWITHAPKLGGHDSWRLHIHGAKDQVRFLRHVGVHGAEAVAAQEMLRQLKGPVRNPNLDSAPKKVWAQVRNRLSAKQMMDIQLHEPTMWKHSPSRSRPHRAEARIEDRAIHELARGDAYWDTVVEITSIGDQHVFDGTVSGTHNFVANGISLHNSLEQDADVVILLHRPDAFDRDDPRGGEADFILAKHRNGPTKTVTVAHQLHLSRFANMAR

Protein RecA = target: T2, Protein RecA (Mycobacterium tuberculosis, UniProt P9WHJ3); assay: Fluorescence Cell-Free Homogeneous Dose Retest to Identify Inhibitors of RecA-Intein Splicing Activity. [Related pubchem assays (depositor defined):AID2097, AID2223, AID489010, AID492950]; assay type: functional
T2 sequence (P9WHJ3 whole entry): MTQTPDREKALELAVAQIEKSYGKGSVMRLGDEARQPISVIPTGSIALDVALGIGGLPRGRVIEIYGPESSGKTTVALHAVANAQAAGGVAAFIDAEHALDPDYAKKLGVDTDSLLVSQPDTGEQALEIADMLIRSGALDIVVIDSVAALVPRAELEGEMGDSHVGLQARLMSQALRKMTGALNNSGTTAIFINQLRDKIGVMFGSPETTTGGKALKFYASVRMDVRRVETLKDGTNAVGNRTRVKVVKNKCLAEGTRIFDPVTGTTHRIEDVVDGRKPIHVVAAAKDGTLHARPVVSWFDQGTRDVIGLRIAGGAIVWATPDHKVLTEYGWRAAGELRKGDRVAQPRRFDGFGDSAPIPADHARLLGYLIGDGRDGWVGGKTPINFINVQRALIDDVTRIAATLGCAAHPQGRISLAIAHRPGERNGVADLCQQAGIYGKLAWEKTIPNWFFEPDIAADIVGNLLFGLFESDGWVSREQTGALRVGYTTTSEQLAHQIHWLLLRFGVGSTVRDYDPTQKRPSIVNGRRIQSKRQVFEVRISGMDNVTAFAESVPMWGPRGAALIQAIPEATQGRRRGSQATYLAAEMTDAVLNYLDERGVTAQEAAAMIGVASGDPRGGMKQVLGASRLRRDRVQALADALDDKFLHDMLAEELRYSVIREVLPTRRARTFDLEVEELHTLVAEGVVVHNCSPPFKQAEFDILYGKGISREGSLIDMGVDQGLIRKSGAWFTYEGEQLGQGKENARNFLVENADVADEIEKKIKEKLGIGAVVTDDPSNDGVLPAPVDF

Genome polyprotein = Genome polyprotein (dengue virus type 2, UniProt P29990); assay: Dengue-2 NS5 methyltransferase inhibitors, primary screen, biochemical, confirmation dose response (AID 588689); assay type: functional
[4] = inhibitors of intracellular T. cruzi replication, confirmation, NIH3T3 host cells, beta-gal luminescence (AID 2044); assay type: functional, cell-based;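 also: intracellular parasites grown in NIH/3T3 mouse fibroblasts as host cells; luminescent beta-galactosidase reporter signal from transgenic T. cruzi replicating inside host cells; inhibitors lower the luminescence signal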
[5] = microbe, parasite or virus in culture; assay type: functional; conditions: Mycobacterium tuberculosis
[6] = cytotoxicity toward NIH3T3 fibroblasts, dose response, counter-screen, cell-based, ATP luminescence, mouse fibroblasts (AID 2010); assay type: functional;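 also: cells exposed to compound for about 90 hours before reading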
cells [7] = assay type: functional, cell-based
[8] = target: T3, Trace amine-associated receptor 1 (Homo sapiens, UniProt Q96RJ0); assay: Fluorescence-based cell-based high throughput dose response assay to identify agonists of the human trace amine associated receptor 1 (TAAR1).; assay type: functional
T3 sequence (Q96RJ0 whole entry): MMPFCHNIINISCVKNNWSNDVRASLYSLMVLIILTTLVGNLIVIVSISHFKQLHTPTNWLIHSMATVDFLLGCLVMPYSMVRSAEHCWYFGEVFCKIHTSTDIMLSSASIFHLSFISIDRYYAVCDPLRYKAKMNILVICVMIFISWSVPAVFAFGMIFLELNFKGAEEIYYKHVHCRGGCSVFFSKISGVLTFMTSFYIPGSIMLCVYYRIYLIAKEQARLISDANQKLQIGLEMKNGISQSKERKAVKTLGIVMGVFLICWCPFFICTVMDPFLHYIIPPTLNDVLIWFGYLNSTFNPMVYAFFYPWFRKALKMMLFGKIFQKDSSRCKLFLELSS

[9] = target: T3, Trace amine-associated receptor 1; assay: Counterscreen for agonists of the human trace amine associated receptor 1 (hTAAR1): Fluorescence-based cell-based high throughput dose response assay to identify hTAAR1 agonist that also desensitize TAAR1 receptor response.; assay type: functional
cells [10] = assay type: functional, cell-based; remark: listed apart in the source
[11] = target: Heat shock protein HSP 90-alpha (Homo sapiens, UniProt P07900); assay type: functional, organism-based
[12] = target: T4, Oxysterols receptor LXR-beta (Homo sapiens, UniProt P55055); assay type: functional, cell-based;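 also: agonist activity at LXR measured by a cell-based luminescence readout across a dose range, run as a counterscreen for daf-12 agonists; HEK293 cells with Gal4-LXR fusion and GAL4-driven luciferase reporter; potency for activation of Gal4-LXR reporter so compounds are agonists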
T4 sequence (P55055 whole entry): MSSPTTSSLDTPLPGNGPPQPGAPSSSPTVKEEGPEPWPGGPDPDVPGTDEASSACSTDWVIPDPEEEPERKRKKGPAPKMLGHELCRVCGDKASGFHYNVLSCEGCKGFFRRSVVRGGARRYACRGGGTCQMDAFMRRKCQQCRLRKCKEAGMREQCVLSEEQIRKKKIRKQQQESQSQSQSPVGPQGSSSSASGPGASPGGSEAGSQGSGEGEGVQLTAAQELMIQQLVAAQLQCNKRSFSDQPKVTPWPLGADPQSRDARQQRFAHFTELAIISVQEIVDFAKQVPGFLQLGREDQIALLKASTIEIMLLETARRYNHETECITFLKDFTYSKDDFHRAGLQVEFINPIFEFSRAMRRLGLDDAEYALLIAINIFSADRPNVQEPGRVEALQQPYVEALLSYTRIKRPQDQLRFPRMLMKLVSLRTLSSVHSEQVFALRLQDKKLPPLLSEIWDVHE

[13] = A549 cell cytotoxicity, dose response, cytotoxicity control, plate reader, cherry-pick, antagonist series (AID 743412); assay type: functional, cell-based
[14] = HepG2 cell cytotoxicity, dose response, cytotoxicity control, plate reader, cherry-pick, antagonist series (AID 743416); assay type: functional, cell-based
[15] = LGR2 antagonists, dose response, cell-based, HEK293, CRE-luciferase reporter, cherry pick, set 2 (AID 743343); assay type: functional;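 also: transfected cells were stimulated with diluted bursicon conditioned medium after compound addition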
[16] = MC4R antagonists, dose response, counter-screen for LGR2 antagonist project, cell-based, plate reader, cherry pick (AID 743444); assay type: functional;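 also: transfected HEK 293 cells stimulated with alpha-MSH peptide; potency of inhibitors of the alpha-MSH evoked signal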
[17] = HEK293 cell cytotoxicity, dose response, cytotoxicity control, plate reader, cherry-picked samples (AID 743446); assay type: functional, cell-based
Large T antigen = Large T antigen (Simian virus 40, UniProt P03070); assay type: functional, Betapolyomavirus macacae;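 also: Confirmatory-stage PubChem screen for compounds that inhibit SV40 T antigen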
Large T antigen, sequence (P03070 whole entry): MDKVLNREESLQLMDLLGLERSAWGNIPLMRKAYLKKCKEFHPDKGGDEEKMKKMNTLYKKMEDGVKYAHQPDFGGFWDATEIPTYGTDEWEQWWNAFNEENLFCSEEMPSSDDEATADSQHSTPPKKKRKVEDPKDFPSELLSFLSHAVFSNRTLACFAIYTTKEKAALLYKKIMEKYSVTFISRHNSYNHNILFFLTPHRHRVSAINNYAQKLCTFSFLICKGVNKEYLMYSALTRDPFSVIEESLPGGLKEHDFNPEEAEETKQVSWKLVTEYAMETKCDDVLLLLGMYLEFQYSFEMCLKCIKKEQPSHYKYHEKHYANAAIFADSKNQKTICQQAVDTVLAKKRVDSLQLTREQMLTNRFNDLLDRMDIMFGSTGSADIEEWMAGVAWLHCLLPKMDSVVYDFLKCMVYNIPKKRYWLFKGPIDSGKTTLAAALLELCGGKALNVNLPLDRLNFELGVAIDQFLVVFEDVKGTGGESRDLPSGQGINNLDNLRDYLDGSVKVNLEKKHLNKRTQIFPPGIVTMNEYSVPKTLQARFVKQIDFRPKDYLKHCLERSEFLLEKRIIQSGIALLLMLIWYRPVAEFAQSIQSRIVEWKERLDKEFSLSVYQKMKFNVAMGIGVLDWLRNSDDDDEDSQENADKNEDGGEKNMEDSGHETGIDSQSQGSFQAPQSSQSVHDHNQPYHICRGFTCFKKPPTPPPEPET

Glyceraldehyde-3-phosphate dehydrogenase, sequence (P04406 whole entry): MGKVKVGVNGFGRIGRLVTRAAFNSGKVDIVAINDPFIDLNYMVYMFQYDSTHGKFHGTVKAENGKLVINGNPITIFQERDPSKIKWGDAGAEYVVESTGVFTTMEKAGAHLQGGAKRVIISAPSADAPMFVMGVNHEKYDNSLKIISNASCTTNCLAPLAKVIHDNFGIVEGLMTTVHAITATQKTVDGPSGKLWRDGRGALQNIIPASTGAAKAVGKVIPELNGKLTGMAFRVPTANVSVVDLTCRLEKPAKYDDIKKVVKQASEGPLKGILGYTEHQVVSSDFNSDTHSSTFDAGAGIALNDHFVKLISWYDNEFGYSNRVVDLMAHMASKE
Genome polyprotein, sequence (P29990 2492-3391 limits assumed): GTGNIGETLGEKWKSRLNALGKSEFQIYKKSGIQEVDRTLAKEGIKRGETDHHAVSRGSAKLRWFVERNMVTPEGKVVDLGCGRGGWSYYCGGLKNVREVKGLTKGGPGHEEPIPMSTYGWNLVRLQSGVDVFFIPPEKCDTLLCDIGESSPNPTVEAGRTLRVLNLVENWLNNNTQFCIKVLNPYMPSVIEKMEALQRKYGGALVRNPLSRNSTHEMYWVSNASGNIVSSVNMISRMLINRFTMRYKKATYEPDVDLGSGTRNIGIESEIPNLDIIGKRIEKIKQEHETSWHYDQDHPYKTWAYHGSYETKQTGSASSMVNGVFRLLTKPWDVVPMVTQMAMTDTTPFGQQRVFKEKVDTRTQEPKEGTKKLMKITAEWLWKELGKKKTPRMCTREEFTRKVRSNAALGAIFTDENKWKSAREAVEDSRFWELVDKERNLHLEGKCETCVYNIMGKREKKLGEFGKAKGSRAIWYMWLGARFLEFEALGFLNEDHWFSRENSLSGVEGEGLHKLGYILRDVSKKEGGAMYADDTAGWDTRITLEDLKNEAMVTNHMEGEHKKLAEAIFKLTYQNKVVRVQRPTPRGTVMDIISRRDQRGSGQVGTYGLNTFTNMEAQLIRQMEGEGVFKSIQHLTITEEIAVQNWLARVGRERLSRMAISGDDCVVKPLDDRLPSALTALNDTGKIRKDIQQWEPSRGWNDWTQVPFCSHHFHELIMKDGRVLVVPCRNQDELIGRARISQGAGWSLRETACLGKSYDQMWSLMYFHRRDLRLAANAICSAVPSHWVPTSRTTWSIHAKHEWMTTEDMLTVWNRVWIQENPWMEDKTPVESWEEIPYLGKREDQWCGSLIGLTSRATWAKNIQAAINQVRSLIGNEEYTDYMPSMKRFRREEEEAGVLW

CC1(C)Cc2nc3sc4c(=O)n(CC(=O)NCc5ccccc5)cnc4c3cc2CO1
IC50 [1]: > 80 µM (inactive)

Cc1cccc(N2C(=O)C(Cl)=C(N3CCOCC3)C2=O)c1
IC50 [2]: > 50 µM (inconclusive) | AC50 [3]: 6.69 µM (active) | EC50 (Protein RecA): 1.9 µM (active) | IC50 (Genome polyprotein): 34.5 µM (active)

OC(COC(c1ccc(Cl)cc1)c1ccc(Cl)cc1)CN1CCc2ccccc2C1 (stereo not given)
EC50 [4]: 2.16 µM (active) | CC50 [5]: 34.7 µM (active) | EC50 [6]: > 60 µM (inconclusive) | AC50 [3]: 2.26 µM (active) | EC50 (Protein RecA): 81.5 µM (active) | IC50 (cells [7]): 12.1 µM (inactive) | EC50 [8]: 2.13 µM (active) | IC50 [9]: 9.26 µM (active) | EC50 (cells [10]): > 29.9 µM (inactive)

O=[N+]([O-])/C=C/c1c(Cl)cccc1Cl
AC50 [11]: 1.12 µM (active)

Nc1c2c(nc3sc4c(c13)CCCC4)CCCCC2
EC50 [12]: > 67.6 µM (inactive)

COc1ccccc1NC(=O)N1CCCCN2[C@@H](CO)[C@H](c3ccc(-c4cccc(F)c4)cc3)[C@@H]2C1
AC50 [13]: 18.6 µM (active) | AC50 [14]: 19 µM (active) | AC50 [15]: 64.7 µM (active) | AC50 [16]: 52.2 µM (active) | AC50 [17]: > 52 µM (inactive)

CC1CCN(C(=O)c2ccc(S(=O)(=O)Cc3cc(F)ccc3F)c([N+](=O)[O-])c2)CC1
AC50 [13]: 25.4 µM (active) | AC50 [14]: > 52 µM (inactive) | AC50 [16]: 53.6 µM (active) | AC50 [17]: 31.7 µM (active)

COc1cccc(NC(=N)N)c1
IC50 (cells [7]): > 29.9 µM (inactive) | EC50 [8]: 1.87 µM (active) | IC50 [9]: 5.04 µM (active) | EC50 (cells [10]): > 29.9 µM (inactive)

CC[C@H](C)/C=C/C1=CC2=C(Cl)C(=O)[C@@]3(C)OC(=O)C(C(=O)[C@H](C)[C@@H](C)O)=C3C2=CO1
IC50 (Large T antigen): 44 µM (active) | AC50 [11]: 7.41 µM (active)

O=C(O)C1C2CCC(C2)C1C(=O)NCCC1=CCCCC1 (stereo not given)
IC50 (cells [7]): > 29.9 µM (inactive) | EC50 [8]: 6.32 µM (active) | IC50 [9]: > 29.9 µM (inactive) | EC50 (cells [10]): > 29.9 µM (inactive)
